Results: ChEMBL document CHEMBL6120970, “Discovery and Functional Characterization of a Potent, Selective, and Metabolically Stable PROTAC of the Protein Kinases DYRK1A and DYRK1B” (J Med Chem, 2024)
The source made the active and inactive calls. The calls are words filed in the database; no cut-off is given here.

Tests used:
[1] = molecular target: T1, Protein cereblon/Dual specificity tyrosine-phosphorylation-regulated kinase 1A (Homo sapiens, UniProt Q13627+Q96SW2); experiment: Competitive binding affinity to CRBN/DYRK1A (unknown origin) assessed as dissociation constant; assay type: protein assay
[2] = molecular target: Protein cereblon/Dual specificity tyrosine-phosphorylation-regulated kinase 1B (Homo sapiens, UniProt Q96SW2+Q9Y463); experiment: Competitive binding affinity to CRBN/DYRK1B (unknown origin) assessed as dissociation constant; assay type: protein assay
[3] = molecular target: T1, Protein cereblon/Dual specificity tyrosine-phosphorylation-regulated kinase 1A; experiment: PROTAC activity at CRBN/HibiT-tagged DYRK1A in Flp-In-T-REx-293 cells assessed as induction of degradation of DYRK1A by measuring maximum efficacy at 0.3 uM measured after 24 hrs by NanoBiT luciferase assay relative to control; assay type: cell-based
[4] = molecular target: T2, Protein cereblon/Dual specificity tyrosine-phosphorylation-regulated kinase 1B (Homo sapiens) (UniProt Q9Y463+Q96SW2); experiment: PROTAC activity at CRBN/HibiT-tagged DYRK1B in Flp-In-T-REx-293 cells assessed as induction of degradation of DYRK1B by measuring maximum efficacy at 0.3 uM measured after 24 hrs by NanoBiT luciferase assay relative to control; assay type: cell-based
[5] = molecular target: T1, Protein cereblon/Dual specificity tyrosine-phosphorylation-regulated kinase 1A; experiment: PROTAC activity at CRBN/HibiT-tagged DYRK1A in Flp-In-T-REx-293 cells assessed as induction of degradation of DYRK1A by measuring maximum efficacy at 1 uM measured after 24 hrs by NanoBiT luciferase assay relative to control; assay type: cell-based
[6] = molecular target: T2, Protein cereblon/Dual specificity tyrosine-phosphorylation-regulated kinase 1B (Homo sapiens); experiment: PROTAC activity at CRBN/HibiT-tagged DYRK1B in Flp-In-T-REx-293 cells assessed as induction of degradation of DYRK1B by measuring maximum efficacy at 1 uM measured after 24 hrs by NanoBiT luciferase assay relative to control; assay type: cell-based
[7] = molecular target: T1, Protein cereblon/Dual specificity tyrosine-phosphorylation-regulated kinase 1A; experiment: PROTAC activity at CRBN/HibiT-tagged DYRK1A in Flp-In-T-REx-293 cells assessed as induction of degradation of DYRK1A at 1 uM by measured after 24 hrs by NanoBiT luciferase assay; assay type: cell-based
[8] = molecular target: T1, Protein cereblon/Dual specificity tyrosine-phosphorylation-regulated kinase 1A; experiment: PROTAC activity at CRBN/HibiT-tagged DYRK1A in Flp-In-T-REx-293 cells assessed as induction of degradation of DYRK1A at 100 nM by measured after 24 hrs by NanoBiT luciferase assay; assay type: cell-based
[9] = molecular target: T1, Protein cereblon/Dual specificity tyrosine-phosphorylation-regulated kinase 1A; experiment: PROTAC activity at CRBN/DYRK1A in HEK293 cells expressing GFP-SF3B1 assessed as inhibition of SF3B1 phosphorylation at 10 to 100 nM measured for 24 hrs by Western blot analysis; assay type: cell-based; conditions: dose 10-100 nM
[10] = molecular target: von Hippel-Lindau disease tumor suppressor/Dual specificity tyrosine-phosphorylation-regulated kinase 1A (Homo sapiens, UniProt P40337+Q13627); experiment: Competitive binding affinity to VHL/DYRK1A (unknown origin) assessed as dissociation constant by competition binding assay; assay type: protein assay
[11] = molecular target: von Hippel-Lindau disease tumor suppressor/Dual specificity tyrosine-phosphorylation-regulated kinase 1B (Homo sapiens, UniProt P40337+Q9Y463); experiment: Competitive binding affinity to VHL/DYRK1B (unknown origin) assessed as dissociation constant; assay type: protein assay
[12] = molecular target: von Hippel-Lindau disease tumor suppressor/Dual specificity tyrosine-phosphorylation-regulated kinase 1A (Homo sapiens) (UniProt Q13627+P40337); experiment: PROTAC activity at VHL/HibiT-tagged DYRK1A in Flp-In-T-REx-293 cells assessed as induction of degradation of DYRK1A by measuring maximum efficacy at 0.3 uM measured after 24 hrs by NanoBiT luciferase assay relative to control; assay type: cell-based
[13] = molecular target: von Hippel-Lindau disease tumor suppressor/Dual specificity tyrosine-phosphorylation-regulated kinase 1B (Homo sapiens) (UniProt Q9Y463+P40337); experiment: PROTAC activity at VHL/HibiT-tagged DYRK1B in Flp-In-T-REx-293 cells assessed as induction of degradation of DYRK1B by measuring maximum efficacy at 0.3 uM measured after 24 hrs by NanoBiT luciferase assay relative to control; assay type: cell-based
[14] = molecular target: T3, Dual specificity tyrosine-phosphorylation-regulated kinase 1A (Homo sapiens, UniProt Q13627); experiment: Binding affinity to DYRK1A (unknown origin) assessed as dissociation constant
[15] = molecular target: T3, Dual specificity tyrosine-phosphorylation-regulated kinase 1A; experiment: Binding affinity to human wild type partial length DYRK1A (H129 to S509 residues) expressed in mammalian expression system at 1 uM by kinome scan assay relative to control
[16] = molecular target: T4, Serine/threonine-protein kinase haspin (Homo sapiens) (UniProt Q8TF76); experiment: Binding affinity to human wild type partial length Haspin (I452 to K798 residues) expressed in mammalian expression system at 1 uM by kinome scan assay relative to control
T4 sequence (whole entry): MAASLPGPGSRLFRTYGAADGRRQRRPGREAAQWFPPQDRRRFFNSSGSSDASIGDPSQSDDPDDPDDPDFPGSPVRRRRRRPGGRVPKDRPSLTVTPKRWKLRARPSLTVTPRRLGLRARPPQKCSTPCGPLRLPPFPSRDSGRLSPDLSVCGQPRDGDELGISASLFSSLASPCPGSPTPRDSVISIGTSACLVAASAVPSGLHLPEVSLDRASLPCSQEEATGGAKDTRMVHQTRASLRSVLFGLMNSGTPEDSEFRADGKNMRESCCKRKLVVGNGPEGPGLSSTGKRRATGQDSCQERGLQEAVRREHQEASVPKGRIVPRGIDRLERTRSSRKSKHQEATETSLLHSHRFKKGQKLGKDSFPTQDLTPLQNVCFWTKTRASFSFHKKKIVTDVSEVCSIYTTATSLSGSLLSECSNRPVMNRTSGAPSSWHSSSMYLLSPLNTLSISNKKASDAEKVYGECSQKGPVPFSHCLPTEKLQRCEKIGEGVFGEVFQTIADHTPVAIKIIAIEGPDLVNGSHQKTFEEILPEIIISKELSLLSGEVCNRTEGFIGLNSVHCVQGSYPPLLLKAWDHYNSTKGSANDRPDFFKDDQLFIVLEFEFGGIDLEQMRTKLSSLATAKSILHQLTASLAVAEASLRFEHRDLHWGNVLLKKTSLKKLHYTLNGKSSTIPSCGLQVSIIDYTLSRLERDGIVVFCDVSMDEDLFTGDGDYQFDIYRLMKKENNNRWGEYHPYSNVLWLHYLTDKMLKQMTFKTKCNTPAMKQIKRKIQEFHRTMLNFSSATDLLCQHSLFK

[17] = molecular target: Casein kinase I isoform epsilon (Homo sapiens) (UniProt P49674); experiment: Binding affinity to human wild type full length CSNK1E (M1 to K416 residues) expressed in Bacterial expression system at 1 uM by kinome scan assay relative to control
[18] = molecular target: Homeodomain-interacting protein kinase 2 (Homo sapiens) (UniProt Q9H2X6); experiment: Binding affinity to human wild type partial length HIPK2 (M153 to S564 residues) expressed in mammalian expression system at 1 uM by kinome scan assay relative to control
[19] = molecular target: Dual specificity protein kinase CLK1 (Homo sapiens) (UniProt P49759); experiment: Binding affinity to human wild type full length CLK1 (M1 to I484 residues) expressed in Bacterial expression system at 1 uM by kinome scan assay relative to control
[20] = molecular target: Homeodomain-interacting protein kinase 3 (Homo sapiens) (UniProt Q9H422); experiment: Binding affinity to human wild type partial length HIPK3 (M153 to N562 residues) expressed in mammalian expression system at 1 uM by kinome scan assay relative to control
[21] = molecular target: Homeodomain-interacting protein kinase 3 (Homo sapiens) (UniProt Q9H422); experiment: Binding affinity to human wild type full length HIPK3 (M1 to L344 residues) expressed in mammalian expression system at 1 uM by kinome scan assay relative to control
[22] = molecular target: Protein cereblon/DNA damage-binding protein 1 (Homo sapiens, UniProt Q96SW2); experiment: Displacement of Cy5-tagged thalidomide-like probe from recombinant CRBN/DDB1 (unknown origin) by competitive binding assay; assay type: protein assay

Compound	Kd [1] [nM]	Kd [2] [nM]	Emax [5] [%]	Emax [6] [%]	further results
Cc1nc2ccc(-c3ccnc(N)c3)nc2n1-c1ccc(N2CCN(CCOCCOCCOCCNc3cccc4c3C(=O)N(C3CCC(=O)NC3=O)C4=O)CC2)c(F)c1 (stereo not drawn)	2.3	3.4	–	–	Emax [3]: 60%; Emax [4]: 28%
Cc1nc2ccc(-c3ccnc(N)c3)nc2n1-c1ccc(N2CCN(CCOCCOCCOCCOCCNc3cc4c(cc3F)C(=O)N(C3CCC(=O)NC3=O)C4=O)CC2)c(F)c1 (stereo not drawn)	13	43	80	58	–
Cc1nc2ccc(-c3ccnc(N)c3)nc2n1-c1ccc(N2CCN(CCOCCOCCOCCC(=O)N3CCN(Cc4ccc(CNc5cccc6c5CN(C5CCC(=O)NC5=O)C6=O)cc4)CC3)CC2)c(F)c1 (stereo not drawn)	5.6	16	0	0	–
Cc1nc2ccc(-c3ccnc(N)c3)nc2n1-c1ccc(N2CCN(CC#Cc3ccc(N4CCC(C(=O)N5CCC(n6cc(CNc7cccc8c7C(=O)N(C7CCC(=O)N(C)C7=O)C8=O)cn6)CC5)CC4)nc3)CC2)c(F)c1 (stereo not drawn)	–	–	–	–	Activity [7]: Active; Compound Showed Modest Degradation; Activity [8]: inactive; Activity [9]: Active; Compound Partially Suppress The Phosphorylation
Cc1nc2ccc(-c3ccnc(N)c3)nc2n1-c1ccc(N2CCN(CCOCCOCCNc3cccc4c3C(=O)N(C3CCC(=O)NC3=O)C4=O)CC2)c(F)c1 (stereo not drawn)	1.4	3.5	–	–	Emax [3]: 52%; Emax [4]: 25%
Cc1nc2ccc(-c3ccnc(N)c3)nc2n1-c1ccc(N2CCN(C(=O)CCCCN3CCN(Cc4ccc(CNc5cccc6c5CN(C5CCC(=O)NC5=O)C6=O)cc4)CC3)CC2)c(F)c1 (stereo not drawn)	3.3	8.4	63	38	–
Cc1nc2ccc(-c3ccnc(N)c3)nc2n1-c1ccc(N2CCN(CCOCCOCCOCCC(=O)NC3CN(c4ccc5c(c4)C(=O)N(C4CCC(=O)NC4=O)C5=O)C3)CC2)c(F)c1 (stereo not drawn)	3.2	–	27	0	–
Cc1nc2ccc(-c3ccnc(N)c3)nc2n1-c1ccc(N2CCN(C(=O)CCCN3CCN(Cc4ccc(CNc5cccc6c5CN(C5CCC(=O)NC5=O)C6=O)cc4)CC3)CC2)c(F)c1 (stereo not drawn)	1.7	5.2	75	54	–
Cc1nc2ccc(-c3ccnc(N)c3)nc2n1-c1ccc(N2CCN(CCOCCNc3cccc4c3C(=O)N(C3CCC(=O)NC3=O)C4=O)CC2)c(F)c1 (stereo not drawn)	1.4	2.4	–	–	Emax [3]: 40%; Emax [4]: 0%
Cc1ncsc1-c1ccc(CNC(=O)[C@@H]2C[C@@H](O)CN2C(=O)[C@@H](NC(=O)CCOCCOCCOCCOCCN2CCN(c3ccc(-n4c(C)nc5ccc(-c6ccnc(N)c6)nc54)cc3F)CC2)C(C)(C)C)cc1	–	–	–	–	Kd [10]: 1.4 nM; Kd [11]: 6.6 nM; Emax [12]: 0%; Emax [13]: 0%
Cc1nc2ccc(-c3ccnc(N)c3)nc2n1-c1ccc(N2CCN(C(=O)CCCN3CCC(n4cc(CNc5cccc6c5C(=O)N(C5CCC(=O)NC5=O)C6=O)cn4)CC3)CC2)c(F)c1 (stereo not drawn)	2.8	5.1	79	63	–
Cc1ncsc1-c1ccc(CNC(=O)[C@@H]2C[C@@H](O)CN2C(=O)[C@@H](NC(=O)CCOCCOCCN2CCN(c3ccc(-n4c(C)nc5ccc(-c6ccnc(N)c6)nc54)cc3F)CC2)C(C)(C)C)cc1	–	–	–	–	Kd [10]: 2.2 nM; Kd [11]: 6.9 nM; Emax [12]: 5%; Emax [13]: 2%
Cc1nc2ccc(-c3ccnc(N)c3)nc2n1-c1ccc(N2CCN(C)CC2)cc1F	–	–	–	–	Kd [14]: 0.91 nM; Activity [15]: 0%; Activity [16]: 0.2%; Activity [17]: 0.3%; Activity [18]: 0.3%; Activity [19]: 0.5%; Activity [20]: 0.7%; Activity [21]: 0.7%
O=C1CCC(N2C(=O)c3cccc(NCc4cnn(C5CCN(C(=O)C6CCN(c7ccccn7)CC6)CC5)c4)c3C2=O)C(=O)N1 (stereo not drawn)	–	–	–	–	IC50 [22]: 13300 nM
Cc1ncsc1-c1ccc(CNC(=O)[C@@H]2C[C@@H](O)CN2C(=O)[C@@H](NC(=O)CCOCCN2CCN(c3ccc(-n4c(C)nc5ccc(-c6ccnc(N)c6)nc54)cc3F)CC2)C(C)(C)C)cc1	–	–	–	–	Kd [10]: 3.4 nM; Kd [11]: 5.5 nM; Emax [12]: 11%; Emax [13]: 0%
Cc1nc2ccc(-c3ccnc(N)c3)nc2n1-c1ccc(N2CCN(C(=O)CN3CCC(CC(=O)N4CCC(n5cc(CNc6cccc7c6C(=O)N(C6CCC(=O)NC6=O)C7=O)cn5)CC4)CC3)CC2)c(F)c1 (stereo not drawn)	0.64	–	78	65	–
Cc1nc2ccc(-c3ccnc(N)c3)nc2n1-c1ccc(N2CCN(CCOCCOCCOCCC(=O)N3CCN(c4ccc5c(c4)C(=O)N(C4CCC(=O)NC4=O)C5=O)CC3)CC2)c(F)c1 (stereo not drawn)	5.9	–	9	0	–
Cc1ncsc1-c1ccc(CNC(=O)[C@@H]2C[C@@H](O)CN2C(=O)[C@@H](NC(=O)CCOCCOCCOCCN2CCN(c3ccc(-n4c(C)nc5ccc(-c6ccnc(N)c6)nc54)cc3F)CC2)C(C)(C)C)cc1	–	–	–	–	Kd [10]: 1.3 nM; Kd [11]: 3.6 nM; Emax [12]: 0%; Emax [13]: 0%
Cc1nc2ccc(-c3ccnc(N)c3)nc2n1-c1ccc(N2CCN(C(=O)CCN3CCN(Cc4ccc(CNc5cccc6c5CN(C5CCC(=O)NC5=O)C6=O)cc4)CC3)CC2)c(F)c1 (stereo not drawn)	20	47	24	14	–
